Experimental data: patent US9040573B2, “Anti-fungal agent” (Nihon Nohyaku Co., Ltd., priority 2011, dated 2015)
≈ marks a conversion by molar mass, not a printed value. Where two headings read alike, the source gives them in different places.

How the values were obtained:
Scytalidium dimidiatum = experiment: Antifungal Activity Test 1: MIC by broth microdilution method (Alamar Blue); type: cell-based; conditions: Neoscytalidium dimidiatum; for MIC: growth inhibited by 80% or more, read-out: MIC; for MIC90: concentration to be MIC in 9 strains out of the 10 strains (90%), read-out: MIC90
Excerpt: Scytalidium dimidiatum strain of clinical isolate obtained by separation and identification from nail or stratum corneum of patients with superficial mycosis was used. The fungi pre-cultured on an SDA medium was suspended in 0.1% (w/v) Tween 80-containing sterile saline and the suspension was filtered through gauze to collect arthrospore. This was suspended in 0.1% (w/v) Tween 80-containing sterile saline, and added to a 20% Alamar Blue-containing medium to 2×10^4 cells/mL to give a fungal inoculum solution.
(§1) Each drug was used after dissolving in DMSO (dimethyl sulfoxide).
(§2) The minimum inhibitory concentration (MIC) was measured by a broth microdilution method. That is, RPMI1640 medium (Sigma-Aldrich) was buffered with 0.165 M morpholine propanesulfonic acid (MOPS, Wako Pure Chemical Industries, Ltd.) to pH 7.0, and a given amount of a solution of the drug in DMSO was added thereto to prepare 2-fold dilution series within the range of 0.00098-4 μg/mL. This was added to a 96-well microplate by 100 μL, a fungal inoculum solution (100 μL, final concentration of fungi to be added: 1.0×10^4 cells/mL) was added, and the mixture was cultured at 35° C. An Alamar Blue reagent was added in advance to the culture medium (final addition concentration: 10%) and, at the time point when the Alamar Blue reagent in the drug-free growth control group changed from blue to red, the culture was discontinued and the absorbance (differential optical density at 570 nm based on 590 nm served as reference) measured. The minimum concentration of the drug that inhibited the growth of the fungus in the growth control group by 80% or more was taken as MIC. The concentration to be MIC (MIC90) in 9 strains out of the 10 strains (90%) measured was determined.
Reference documents for measurement method: Takako Shinoda et al.: opinion proposed by Committee for Clinical Laboratory Standards of The Japanese Society for Medical Mycology (1995-1997), Method for antifungal susceptibility testing of filamentous fungus, Medical Mycology Journal, 40: 239-257, 1999. Clinical Laboratory Standards Institute/National Committee for Clinical Laboratory Standards. Reference method for broth dilution antifungal susceptibility testing of filamentous fungus. Approved Standard M38-A2. Wayne, Pa.: National Committee for Clinical Laboratory Standards, 2008. Test Results

Scytalidium hyalinum = experiment: Antifungal Activity Test 2: MIC by broth microdilution method (Alamar Blue); type: cell-based; conditions: Neoscytalidium hyalinum
Protocol: as §2
Scytalidium hyalinum strain of clinical isolate available from CBS (Netherlands) was used. The fungus was pre-cultured in an SDA medium, 0.1% (w/v) Tween 80-containing sterile saline was added to give a suspension, which was filtered through gauze to collect arthrospore. This was suspended in 0.1% (w/v) Tween 80-containing sterile saline, and added to a 20% Alamar Blue-containing medium to 2×10^4 cells/mL to give a fungal inoculum solution.
as §1
The test method was the same as in the aforementioned antifungal activity test 1, and the minimum concentration of the drug that inhibited the growth of the fungus in the growth control group by 80% or more was taken as MIC. The MIC range of the 4 strains measured and the geometric mean (GM) of each drug were determined.

[1] = clinical isolate CBS200.88, growth inhibited by 80% or more, read-out: MIC
[2] = clinical isolate CBS545.95, growth inhibited by 80% or more, read-out: MIC
[3] = clinical isolate CBS601.85, growth inhibited by 80% or more, read-out: MIC
[4] = clinical isolate CBS619.84, growth inhibited by 80% or more, read-out: MIC
[5] = geometric mean of the 4 strains measured, read-out: GM (geometric mean of MIC)
[6] = range of the 4 strains measured, read-out: MIC range

Row | Structure (SMILES) | MIC (Scytalidium dimidiatum; clinical isolate 530129) | MIC (Scytalidium dimidiatum; clinical isolate 530142) | MIC (Scytalidium dimidiatum; clinical isolate 530251) | MIC (Scytalidium dimidiatum; clinical isolate 530621) | MIC (Scytalidium dimidiatum; clinical isolate 530633) | MIC (Scytalidium dimidiatum; clinical isolate 530914) | MIC (Scytalidium dimidiatum; clinical isolate 530946) | MIC (Scytalidium dimidiatum; clinical isolate 530999) | MIC (Scytalidium dimidiatum; clinical isolate 531581) | MIC (Scytalidium dimidiatum; clinical isolate 531869) | MIC90 (Scytalidium dimidiatum) | MIC (Scytalidium hyalinum; [1]) | MIC (Scytalidium hyalinum; [2]) | MIC (Scytalidium hyalinum; [3]) | MIC (Scytalidium hyalinum; [4]) | MIC (Scytalidium hyalinum; [5]) | MIC (Scytalidium hyalinum; [6])
1 | CCC(C)n1ncn(-c2ccc(N3CCN(c4ccc(OCC5COC(Cn6cncn6)(c6ccc(Cl)cc6Cl)O5)cc4)CC3)cc2)c1=O (centres unmarked) [ITZ, itraconazole] | > 4 µg/mL | > 4 µg/mL | > 4 µg/mL | > 4 µg/mL | > 4 µg/mL | > 4 µg/mL | > 4 µg/mL | > 4 µg/mL | > 4 µg/mL | > 4 µg/mL | > 4 µg/mL | > 4 µg/mL | > 4 µg/mL | 0.016 µg/mL (≈ 0.0227 µM) | > 4 µg/mL | > 4 µg/mL | 
2 | CC(=O)N1CCN(c2ccc(OCC3COC(Cn4ccnc4)(c4ccc(Cl)cc4Cl)O3)cc2)CC1 (centres unmarked) [KCZ, ketoconazole] | 4 µg/mL (≈ 7.53 µM) | > 4 µg/mL | > 4 µg/mL | > 4 µg/mL | 4 µg/mL (≈ 7.53 µM) | > 4 µg/mL | > 4 µg/mL | > 4 µg/mL | > 4 µg/mL | 2 µg/mL (≈ 3.76 µM) | > 4 µg/mL | 2 µg/mL (≈ 3.76 µM) | 1 µg/mL (≈ 1.88 µM) | 0.031 µg/mL (≈ 0.0583 µM) | 2 µg/mL (≈ 3.76 µM) | 0.59 µg/mL (≈ 1.11 µM) | 0.031 to 2 µg/mL (≈ 0.0583 to 3.76 µM)
3 | N#C/C(=C1/SCC(c2ccccc2Cl)S1)n1ccnc1 (centres unmarked) [LCZ, [4-(2-chlorophenyl)-1,3-dithioran-2-ylidene](1H-imidazol-1-yl)acetonitrile] | 0.0039 µg/mL (≈ 0.0122 µM) | 0.002 µg/mL (≈ 0.00625 µM) | 0.0039 µg/mL (≈ 0.0122 µM) | 0.0039 µg/mL (≈ 0.0122 µM) | 0.0039 µg/mL (≈ 0.0122 µM) | 0.0039 µg/mL (≈ 0.0122 µM) | 0.0039 µg/mL (≈ 0.0122 µM) | 0.002 µg/mL (≈ 0.00625 µM) | 0.0039 µg/mL (≈ 0.0122 µM) | 0.002 µg/mL (≈ 0.00625 µM) | 0.0039 µg/mL (≈ 0.0122 µM) | 0.002 µg/mL (≈ 0.00625 µM) | 0.00098 µg/mL (≈ 0.00306 µM) | 0.00024 µg/mL (≈ 0.00075 µM) | 0.002 µg/mL (≈ 0.00625 µM) | 0.00098 µg/mL (≈ 0.00306 µM) | 0.00024 to 0.002 µg/mL (≈ 0.00075 to 0.00625 µM)
4 | N#C/C(=C1/SC[C@@H](c2ccc(Cl)cc2Cl)S1)n1ccnc1 [LLCZ, (−)-(E)-[(4R)-(2,4-dichlorophenyl)-1,3-dithioran-2-ylidene](1H-imidazol-1-yl)acetonitrile] | 0.002 µg/mL (≈ 0.00565 µM) | 0.002 µg/mL (≈ 0.00565 µM) | 0.002 µg/mL (≈ 0.00565 µM) | 0.002 µg/mL (≈ 0.00565 µM) | 0.002 µg/mL (≈ 0.00565 µM) | 0.002 µg/mL (≈ 0.00565 µM) | 0.002 µg/mL (≈ 0.00565 µM) | 0.002 µg/mL (≈ 0.00565 µM) | 0.002 µg/mL (≈ 0.00565 µM) | 0.00098 µg/mL (≈ 0.00277 µM) | 0.002 µg/mL (≈ 0.00565 µM) | 0.00098 µg/mL (≈ 0.00277 µM) | 0.00098 µg/mL (≈ 0.00277 µM) | 0.00012 µg/mL (≈ 0.000339 µM) | 0.00098 µg/mL (≈ 0.00277 µM) | 0.00058 µg/mL (≈ 0.00164 µM) | 0.00012 to 0.00098 µg/mL (≈ 0.000339 to 0.00277 µM)
5 | Clc1ccc(COC(Cn2ccnc2)c2ccc(Cl)cc2Cl)c(Cl)c1 (centres unmarked) [MCZ, miconazole] | 1 µg/mL (≈ 2.4 µM) | 1 µg/mL (≈ 2.4 µM) | 1 µg/mL (≈ 2.4 µM) | 1 µg/mL (≈ 2.4 µM) | 0.5 µg/mL (≈ 1.2 µM) | 1 µg/mL (≈ 2.4 µM) | 1 µg/mL (≈ 2.4 µM) | 0.5 µg/mL (≈ 1.2 µM) | 0.5 µg/mL (≈ 1.2 µM) | 0.5 µg/mL (≈ 1.2 µM) | 1 µg/mL (≈ 2.4 µM) | 0.5 µg/mL (≈ 1.2 µM) | 0.5 µg/mL (≈ 1.2 µM) | 0.063 µg/mL (≈ 0.151 µM) | 0.5 µg/mL (≈ 1.2 µM) | 0.3 µg/mL (≈ 0.721 µM) | 0.063 to 0.5 µg/mL (≈ 0.151 to 1.2 µM)
6 | CN(C/C=C/C#CC(C)(C)C)Cc1cccc2ccccc12 [TBF, terbinafine] | 0.5 µg/mL (≈ 1.72 µM) | 0.25 µg/mL (≈ 0.858 µM) | 0.5 µg/mL (≈ 1.72 µM) | 0.5 µg/mL (≈ 1.72 µM) | 0.25 µg/mL (≈ 0.858 µM) | 0.25 µg/mL (≈ 0.858 µM) | 1 µg/mL (≈ 3.43 µM) | 0.5 µg/mL (≈ 1.72 µM) | 0.5 µg/mL (≈ 1.72 µM) | 0.5 µg/mL (≈ 1.72 µM) | 0.5 µg/mL (≈ 1.72 µM) | 0.25 µg/mL (≈ 0.858 µM) | 0.5 µg/mL (≈ 1.72 µM) | 1 µg/mL (≈ 3.43 µM) | 0.25 µg/mL (≈ 0.858 µM) | 0.42 µg/mL (≈ 1.44 µM) | 0.25 to 1 µg/mL (≈ 0.858 to 3.43 µM)
